Experimental data taken from US11572369B2, “Bicyclic pyridine compositions and methods of using the same for cancer therapy” (UNIVERSITY OF SOUTH CAROLINA, priority 2019, dated 2023).

Columns and labels:
Assay in all cases: KINOMEscan
Assay type in all cases: binding
Details in all cases: 2000 nM
[1] = biological target: ABL1-phosphorylated (Homo sapiens, UniProt P00519)
[2] = biological target: T1, ABL2 (Homo sapiens, UniProt P42684)
T1 construct: purchased DiscoveRx (KINOMEscan scanMAX panel, service)

[3] = biological target: T2, BUB1 (Homo sapiens, UniProt O43683)
T2 construct: DNA label (for qPCR read-out); purchased KINOMEscan scanMAX panel (DiscoveRx)

[4] = biological target: T3, CDK4-cyclinD1 (Homo sapiens, UniProt P11802)
T3 construct: purchased DiscoverX (KINOMEscan service)

[5] = biological target: T4, CSNK1E (Homo sapiens, UniProt P49674)
T4 construct: DNA label (qPCR read-out); purchased DiscoverX (assay service)

[6] = biological target: T5, CSNK1G2 (Homo sapiens, UniProt P78368)
T5 construct: DNA label; purchased DiscoveRx (KINOMEscan scanMAX panel)

[7] = biological target: T6, DCAMKL3 (Homo sapiens, UniProt Q9C098)
T6 construct: DNA label (qPCR read-out); purchased KINOMEscan (DiscoveRx) panel

[8] = biological target: T7, DDR1 (Homo sapiens, UniProt Q08345)
T7 construct: DNA label (qPCR read-out); purchased KINOMEscan (DiscoveRx) panel

[9] = biological target: T8, DLK (Homo sapiens, UniProt Q12852)
T8 construct: DNA label (qPCR read-out); purchased KINOMEscan (DiscoveRx) panel

[10] = biological target: T9, DYRK2 (Homo sapiens, UniProt Q92630)
T9 construct: DNA label (qPCR read-out); purchased KINOMEscan (DiscoveRx) panel

[11] = biological target: T10, EGFR(L858R) (Homo sapiens, UniProt P00533, L858R)
T10 construct: purchased DiscoveRx (KINOMEscan scanMAX panel)

[12] = biological target: T11, ERN1 (Homo sapiens, UniProt O75460)
T11 construct: DNA label (qPCR read-out); purchased DiscoveRx (KINOMEscan ScanMAX panel)
T11 sequence (O75460 19-977): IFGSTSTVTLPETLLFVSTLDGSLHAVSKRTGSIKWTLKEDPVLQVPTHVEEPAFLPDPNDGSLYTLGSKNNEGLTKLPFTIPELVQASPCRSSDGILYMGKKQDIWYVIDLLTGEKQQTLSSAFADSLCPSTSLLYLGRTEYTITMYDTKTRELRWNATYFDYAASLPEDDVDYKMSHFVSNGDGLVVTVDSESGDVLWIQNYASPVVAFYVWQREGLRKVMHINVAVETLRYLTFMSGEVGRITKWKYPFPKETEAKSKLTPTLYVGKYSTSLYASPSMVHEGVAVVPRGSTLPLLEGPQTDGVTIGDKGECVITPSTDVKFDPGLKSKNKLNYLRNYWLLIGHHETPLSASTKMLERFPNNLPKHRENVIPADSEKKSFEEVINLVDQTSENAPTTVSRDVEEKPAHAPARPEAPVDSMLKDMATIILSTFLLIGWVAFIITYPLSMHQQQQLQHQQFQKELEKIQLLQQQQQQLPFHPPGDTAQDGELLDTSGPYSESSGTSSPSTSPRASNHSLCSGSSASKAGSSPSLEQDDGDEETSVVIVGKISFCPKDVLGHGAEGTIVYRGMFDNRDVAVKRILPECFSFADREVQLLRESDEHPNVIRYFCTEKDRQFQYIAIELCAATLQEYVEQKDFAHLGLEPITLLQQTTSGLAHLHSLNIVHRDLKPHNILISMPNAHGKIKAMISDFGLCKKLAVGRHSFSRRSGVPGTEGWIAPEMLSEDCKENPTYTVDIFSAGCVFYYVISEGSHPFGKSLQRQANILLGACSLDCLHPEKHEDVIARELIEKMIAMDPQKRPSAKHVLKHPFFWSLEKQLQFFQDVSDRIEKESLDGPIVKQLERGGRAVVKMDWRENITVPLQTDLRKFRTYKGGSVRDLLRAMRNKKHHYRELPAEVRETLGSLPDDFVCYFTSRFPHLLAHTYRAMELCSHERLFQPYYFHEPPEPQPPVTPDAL

[13] = biological target: T12, FLT4 (Homo sapiens, UniProt P35916)
T12 construct: purchased KINOMEscan (DiscoveRx)

[14] = biological target: T13, IKK-beta (Homo sapiens, UniProt O14920)
T13 construct: DNA label (qPCR read-out); purchased KINOMEscan (DiscoveRx) ScanMAX panel
T13 sequence (O14920 whole entry): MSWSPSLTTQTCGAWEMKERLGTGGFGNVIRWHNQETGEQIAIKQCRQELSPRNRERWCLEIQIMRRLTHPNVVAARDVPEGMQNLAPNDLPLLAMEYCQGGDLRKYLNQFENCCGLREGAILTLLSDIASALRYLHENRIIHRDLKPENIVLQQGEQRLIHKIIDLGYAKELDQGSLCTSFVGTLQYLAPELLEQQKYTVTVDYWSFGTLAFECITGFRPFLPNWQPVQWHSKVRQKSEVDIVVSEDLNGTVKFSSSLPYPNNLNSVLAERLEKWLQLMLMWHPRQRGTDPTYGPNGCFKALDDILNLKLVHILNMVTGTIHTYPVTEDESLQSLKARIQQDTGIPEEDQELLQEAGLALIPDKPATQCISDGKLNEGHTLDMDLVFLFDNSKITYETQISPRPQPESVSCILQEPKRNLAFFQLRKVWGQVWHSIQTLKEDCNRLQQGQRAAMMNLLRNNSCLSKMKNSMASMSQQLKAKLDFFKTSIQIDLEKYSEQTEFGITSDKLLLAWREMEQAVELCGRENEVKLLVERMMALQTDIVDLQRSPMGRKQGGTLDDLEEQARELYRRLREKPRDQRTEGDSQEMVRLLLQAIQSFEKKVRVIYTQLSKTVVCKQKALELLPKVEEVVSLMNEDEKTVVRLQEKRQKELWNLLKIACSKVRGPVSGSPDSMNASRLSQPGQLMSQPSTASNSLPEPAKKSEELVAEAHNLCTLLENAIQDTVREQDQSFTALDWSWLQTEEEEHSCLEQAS

[15] = biological target: T14, LRRK2 (Homo sapiens, UniProt Q5S007)
T14 construct: purchased KINOMEscan (DiscoveRx) panel service

[16] = biological target: MAP4K3 (Homo sapiens, UniProt Q8IVH8)
[17] = biological target: T15, MEK1 (Homo sapiens, UniProt Q02750)
T15 construct: purchased DiscoveRx (KINOMEscan scanMAX panel, service)

[18] = biological target: T16, MELK (Homo sapiens, UniProt Q14680)
T16 construct: purchased DiscoveRx (KINOMEscan scanMAX panel, service)

[19] = biological target: T17, MET(M1250T) (Homo sapiens, UniProt P08581, M1250T)
T17 construct: purchased DiscoveRx (KINOMEscan scanMAX panel, service)

[20] = biological target: T18, MUSK (Homo sapiens, UniProt O15146)
T18 construct: DNA label (for qPCR read-out); purchased KINOMEscan scanMAX panel (DiscoveRx)

[21] = biological target: T19, NDR1 (Homo sapiens, UniProt Q15208)
T19 construct: DNA label (for qPCR read-out); purchased KINOMEscan scanMAX panel (DiscoveRx)
T19 sequence (Q15208 whole entry): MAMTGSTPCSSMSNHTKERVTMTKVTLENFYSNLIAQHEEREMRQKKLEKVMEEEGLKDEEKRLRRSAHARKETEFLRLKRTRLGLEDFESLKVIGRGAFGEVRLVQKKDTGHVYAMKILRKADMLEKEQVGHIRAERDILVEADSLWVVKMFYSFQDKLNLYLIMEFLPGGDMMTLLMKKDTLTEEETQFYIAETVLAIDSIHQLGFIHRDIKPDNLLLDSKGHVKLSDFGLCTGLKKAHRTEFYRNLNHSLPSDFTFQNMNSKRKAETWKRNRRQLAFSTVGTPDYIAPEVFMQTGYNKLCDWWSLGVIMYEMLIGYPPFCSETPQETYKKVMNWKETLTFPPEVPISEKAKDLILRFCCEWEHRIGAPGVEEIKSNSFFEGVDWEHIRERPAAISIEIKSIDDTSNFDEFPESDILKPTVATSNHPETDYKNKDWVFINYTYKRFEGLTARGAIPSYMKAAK

[22] = biological target: T20, p38-delta (Homo sapiens, UniProt O15264)
T20 construct: purchased DiscoverX (KINOMEscan service)

[23] = biological target: T21, PAK1 (Homo sapiens, UniProt Q13153)
T21 construct: purchased DiscoverX (KINOMEscan service)

[24] = biological target: T22, PCTK1 (Homo sapiens, UniProt Q00536)
T22 construct: purchased DiscoverX (KINOMEscan service)

[25] = biological target: T23, PIP5K2C (Homo sapiens, UniProt Q8TBX8)
T23 construct: DNA label (qPCR read-out); purchased KINOMEscan (DiscoveRx) panel

[26] = biological target: T24, RET (Homo sapiens, UniProt P07949)
T24 construct: purchased DiscoveRx (KINOMEscan scanMAX panel)

[27] = biological target: T25, ROS1 (Homo sapiens, UniProt P08922)
T25 construct: DNA label (qPCR read-out); purchased DiscoveRx (KINOMEscan ScanMAX panel)
T25 sequence (P08922 28-2347): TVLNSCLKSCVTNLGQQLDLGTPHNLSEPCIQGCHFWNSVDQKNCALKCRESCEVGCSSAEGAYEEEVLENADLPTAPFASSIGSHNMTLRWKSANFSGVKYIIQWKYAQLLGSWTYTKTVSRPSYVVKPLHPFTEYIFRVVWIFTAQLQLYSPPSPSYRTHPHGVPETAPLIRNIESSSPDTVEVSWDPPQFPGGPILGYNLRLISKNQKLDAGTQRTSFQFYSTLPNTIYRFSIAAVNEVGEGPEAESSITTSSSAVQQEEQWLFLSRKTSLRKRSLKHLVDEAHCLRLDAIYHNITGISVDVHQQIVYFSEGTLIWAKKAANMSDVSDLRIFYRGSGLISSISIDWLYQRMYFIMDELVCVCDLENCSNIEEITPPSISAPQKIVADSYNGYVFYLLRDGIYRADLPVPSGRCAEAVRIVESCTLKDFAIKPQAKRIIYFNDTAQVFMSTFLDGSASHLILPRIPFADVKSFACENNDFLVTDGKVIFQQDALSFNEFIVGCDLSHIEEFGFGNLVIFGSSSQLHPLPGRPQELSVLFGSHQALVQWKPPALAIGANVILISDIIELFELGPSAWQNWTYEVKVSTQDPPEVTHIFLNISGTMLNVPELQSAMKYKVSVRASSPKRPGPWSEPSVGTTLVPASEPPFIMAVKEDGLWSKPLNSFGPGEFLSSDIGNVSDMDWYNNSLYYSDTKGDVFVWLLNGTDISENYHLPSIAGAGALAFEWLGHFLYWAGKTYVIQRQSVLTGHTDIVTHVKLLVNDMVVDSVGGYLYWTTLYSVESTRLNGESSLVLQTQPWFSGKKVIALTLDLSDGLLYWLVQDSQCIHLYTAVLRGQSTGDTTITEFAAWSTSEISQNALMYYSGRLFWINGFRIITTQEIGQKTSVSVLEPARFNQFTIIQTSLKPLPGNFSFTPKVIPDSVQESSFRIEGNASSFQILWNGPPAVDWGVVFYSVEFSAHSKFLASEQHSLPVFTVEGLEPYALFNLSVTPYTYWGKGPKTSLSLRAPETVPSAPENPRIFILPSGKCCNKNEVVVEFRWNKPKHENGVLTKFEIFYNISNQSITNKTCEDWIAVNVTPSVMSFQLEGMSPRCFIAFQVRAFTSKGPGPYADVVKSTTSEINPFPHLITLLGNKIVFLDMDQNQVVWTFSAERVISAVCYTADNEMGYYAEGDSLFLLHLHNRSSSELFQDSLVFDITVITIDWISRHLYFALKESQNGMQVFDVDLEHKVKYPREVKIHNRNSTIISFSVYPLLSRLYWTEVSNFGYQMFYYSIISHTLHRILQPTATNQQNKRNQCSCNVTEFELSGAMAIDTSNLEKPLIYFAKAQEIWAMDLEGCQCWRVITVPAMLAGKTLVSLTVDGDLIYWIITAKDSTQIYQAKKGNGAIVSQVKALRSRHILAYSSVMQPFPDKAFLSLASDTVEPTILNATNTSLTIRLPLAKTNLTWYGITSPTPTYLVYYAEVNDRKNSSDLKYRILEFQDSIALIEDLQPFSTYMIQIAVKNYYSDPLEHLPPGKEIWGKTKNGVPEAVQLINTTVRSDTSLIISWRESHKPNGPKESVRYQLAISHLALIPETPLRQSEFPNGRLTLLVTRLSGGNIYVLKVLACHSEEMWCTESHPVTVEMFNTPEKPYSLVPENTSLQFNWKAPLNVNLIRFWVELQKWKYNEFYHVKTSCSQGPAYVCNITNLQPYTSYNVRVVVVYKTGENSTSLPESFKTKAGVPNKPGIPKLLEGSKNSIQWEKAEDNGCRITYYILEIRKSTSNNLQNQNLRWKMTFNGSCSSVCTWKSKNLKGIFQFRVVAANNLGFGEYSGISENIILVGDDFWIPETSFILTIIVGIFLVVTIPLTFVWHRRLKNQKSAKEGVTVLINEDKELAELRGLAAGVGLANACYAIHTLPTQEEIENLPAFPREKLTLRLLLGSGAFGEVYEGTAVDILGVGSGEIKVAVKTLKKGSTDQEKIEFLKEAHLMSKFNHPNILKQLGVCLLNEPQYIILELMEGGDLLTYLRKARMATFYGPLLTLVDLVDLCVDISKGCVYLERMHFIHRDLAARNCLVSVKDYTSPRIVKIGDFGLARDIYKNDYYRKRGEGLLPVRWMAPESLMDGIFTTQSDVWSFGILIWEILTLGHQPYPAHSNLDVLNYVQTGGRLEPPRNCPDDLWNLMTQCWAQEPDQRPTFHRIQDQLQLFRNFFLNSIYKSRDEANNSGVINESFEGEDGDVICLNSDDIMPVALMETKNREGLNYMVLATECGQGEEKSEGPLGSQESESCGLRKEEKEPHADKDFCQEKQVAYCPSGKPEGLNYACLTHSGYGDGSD

[28] = biological target: T26, RPS6KA5(Kin.Dom.1-N-terminal) (Homo sapiens, UniProt O75582)
T26 construct: Kin.Dom.1; DNA label (qPCR read-out); purchased DiscoveRx (KINOMEscan ScanMAX panel)
T26 sequence (O75582 49-318 limits assumed): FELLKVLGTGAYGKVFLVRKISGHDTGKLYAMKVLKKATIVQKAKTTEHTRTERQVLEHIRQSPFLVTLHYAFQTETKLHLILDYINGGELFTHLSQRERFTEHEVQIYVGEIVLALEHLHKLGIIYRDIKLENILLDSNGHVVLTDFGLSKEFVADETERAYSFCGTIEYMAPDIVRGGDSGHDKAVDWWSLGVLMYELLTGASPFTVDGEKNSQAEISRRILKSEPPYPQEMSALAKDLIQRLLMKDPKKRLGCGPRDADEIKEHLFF

[29] = biological target: T27, RSK4(Kin.Dom.2-C-terminal) (Homo sapiens, UniProt Q9UK32)
T27 construct: RSK4(Kin.Dom.2); purchased DiscoveRx (KINOMEscan scanMAX panel)
T27 sequence (Q9UK32 426-683 limits assumed): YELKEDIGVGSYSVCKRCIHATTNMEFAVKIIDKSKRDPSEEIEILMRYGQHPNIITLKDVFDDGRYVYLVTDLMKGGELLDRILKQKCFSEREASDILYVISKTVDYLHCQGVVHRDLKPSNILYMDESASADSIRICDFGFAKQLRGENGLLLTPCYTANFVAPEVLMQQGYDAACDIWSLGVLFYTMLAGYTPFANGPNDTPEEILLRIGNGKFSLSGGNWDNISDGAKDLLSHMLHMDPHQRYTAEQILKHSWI

[30] = biological target: T28, SRMS (Homo sapiens, UniProt Q9H3Y6)
T28 construct: purchased KINOMEscan (DiscoveRx)

[31] = biological target: T29, TEC (Homo sapiens, UniProt P42680)
T29 construct: DNA label (for qPCR read-out); purchased DiscoveRx (KINOMEscan scanMAX panel, contract assay)

[32] = biological target: T30, TNNI3K (Homo sapiens, UniProt Q59H18)
T30 construct: DNA label (qPCR read-out); purchased KINOMEscan (DiscoveRx) ScanMAX panel

[33] = biological target: T31, TRPM6 (Homo sapiens, UniProt Q9BX84)
T31 construct: DNA label (for qPCR read-out); purchased DiscoveRx (KINOMEscan scanMAX panel)

[34] = biological target: T32, TYRO3 (Homo sapiens, UniProt Q06418)
T32 construct: DNA label (for qPCR read-out); purchased DiscoveRx (KINOMEscan scanMAX panel)

[35] = biological target: T33, VRK2 (Homo sapiens, UniProt Q86Y07)
T33 construct: purchased KINOMEscan (DiscoveRx) panel service

[36] = biological target: ZAP70 (Homo sapiens, UniProt P43403)

**Q.** Which results are given for `[2H]C([2H])([2H])N(C(=O)c1ccc(N2CCCN(c3ccnc4sc(C(N)=O)c(N)c34)CC2)cc1)C([2H])([2H])[2H]` [15u_D6, 3-amino-4-(4-(4-(bis(methyl-d3)carbamoyl)phenyl)-1,4-diazepan-1-yl)thieno[2,3-b]pyridine-2-carboxamide]?
**A.** % Ctrl [1]: 77 % Ctrl; % Ctrl [2]: 91 % Ctrl; % Ctrl [3]: 80 % Ctrl; % Ctrl [4]: 96 % Ctrl; % Ctrl [5]: 12 % Ctrl; % Ctrl [6]: 69 % Ctrl; % Ctrl [7]: 100 % Ctrl; % Ctrl [8]: 90 % Ctrl; % Ctrl [9]: 89 % Ctrl; % Ctrl [10]: 97 % Ctrl; % Ctrl [11]: 93 % Ctrl; % Ctrl [12]: 80 % Ctrl; % Ctrl [13]: 98 % Ctrl; % Ctrl [14]: 71 % Ctrl; % Ctrl [15]: 70 % Ctrl; % Ctrl [16]: 95 % Ctrl; % Ctrl [17]: 83 % Ctrl; % Ctrl [18]: 84 % Ctrl; % Ctrl [19]: 96 % Ctrl; % Ctrl [20]: 82 % Ctrl; % Ctrl [21]: 80 % Ctrl; % Ctrl [22]: 97 % Ctrl; % Ctrl [23]: 92 % Ctrl; % Ctrl [24]: 64 % Ctrl; % Ctrl [25]: 64 % Ctrl; % Ctrl [26]: 86 % Ctrl; % Ctrl [27]: 100 % Ctrl; % Ctrl [28]: 100 % Ctrl; % Ctrl [29]: 79 % Ctrl; % Ctrl [30]: 93 % Ctrl; % Ctrl [31]: 81 % Ctrl; % Ctrl [32]: 100 % Ctrl; % Ctrl [33]: 80 % Ctrl; % Ctrl [34]: 100 % Ctrl; % Ctrl [35]: 56 % Ctrl; % Ctrl [36]: 87 % Ctrl

**Q.** How did the “% Ctrl” value [1] turn out when `CN(C)C(=O)c1ccc(N2CCCN(c3ccnc4sc(C(N)=O)c(N)c34)CC2)cc1` [15u, 3-amino-4-(4-(4-(dimethylcarbamoyl)phenyl)-1,4-diazepan-1-yl)thieno[2,3-b]pyridine-2-carboxamide] was run?
**A.** The value was 90 % Ctrl.

**Q.** What about the “% Ctrl” value [2] of the same compound?
**A.** Its value is 85 % Ctrl.

**Q.** And the “% Ctrl” value [3]?
**A.** The value was 88 % Ctrl.

**Q.** And the “% Ctrl” value [4]?
**A.** The value was 94 % Ctrl.

**Q.** What about the “% Ctrl” value [5] of the same compound?
**A.** The value was 25 % Ctrl.

**Q.** What about the “% Ctrl” value [6] of the same compound?
**A.** Its value is 77 % Ctrl.

**Q.** And the “% Ctrl” value [7]?
**A.** Its value is 91 % Ctrl.

**Q.** And the “% Ctrl” value [8]?
**A.** The value was 82 % Ctrl.

**Q.** And the “% Ctrl” value [9]?
**A.** Its value is 93 % Ctrl.

**Q.** What about the “% Ctrl” value [10] of the same compound?
**A.** Its value is 100 % Ctrl.

**Q.** And the “% Ctrl” value [11]?
**A.** Its value is 99 % Ctrl.

**Q.** And the “% Ctrl” value [12]?
**A.** Its value is 100 % Ctrl.

**Q.** What about the “% Ctrl” value [13] of the same compound?
**A.** The value was 92 % Ctrl.

**Q.** What about the “% Ctrl” value [14] of the same compound?
**A.** Its value is 89 % Ctrl.

**Q.** And the “% Ctrl” value [15]?
**A.** Its value is 94 % Ctrl.

**Q.** And the “% Ctrl” value [16]?
**A.** The value was 91 % Ctrl.

**Q.** What about the “% Ctrl” value [17] of the same compound?
**A.** The value was 93 % Ctrl.

**Q.** And the “% Ctrl” value [18]?
**A.** Its value is 75 % Ctrl.

**Q.** What about the “% Ctrl” value [19] of the same compound?
**A.** The value was 100 % Ctrl.

**Q.** What about the “% Ctrl” value [20] of the same compound?
**A.** The value was 94 % Ctrl.

**Q.** And the “% Ctrl” value [21]?
**A.** The value was 100 % Ctrl.

**Q.** What about the “% Ctrl” value [22] of the same compound?
**A.** Its value is 96 % Ctrl.

**Q.** And the “% Ctrl” value [23]?
**A.** Its value is 96 % Ctrl.

**Q.** What about the “% Ctrl” value [24] of the same compound?
**A.** Its value is 92 % Ctrl.

**Q.** What about the “% Ctrl” value [25] of the same compound?
**A.** Its value is 80 % Ctrl.

**Q.** And the “% Ctrl” value [26]?
**A.** Its value is 93 % Ctrl.

**Q.** What about the “% Ctrl” value [27] of the same compound?
**A.** Its value is 95 % Ctrl.

**Q.** What about the “% Ctrl” value [28] of the same compound?
**A.** The value was 75 % Ctrl.

**Q.** What about the “% Ctrl” value [29] of the same compound?
**A.** The value was 94 % Ctrl.

**Q.** And the “% Ctrl” value [30]?
**A.** The value was 81 % Ctrl.

**Q.** And the “% Ctrl” value [31]?
**A.** The value was 91 % Ctrl.

**Q.** And the “% Ctrl” value [32]?
**A.** Its value is 100 % Ctrl.

**Q.** And the “% Ctrl” value [33]?
**A.** The value was 100 % Ctrl.

**Q.** And the “% Ctrl” value [34]?
**A.** Its value is 100 % Ctrl.

**Q.** And the “% Ctrl” value [35]?
**A.** The value was 84 % Ctrl.

**Q.** What about the “% Ctrl” value [36] of the same compound?
**A.** The value was 95 % Ctrl.
